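Test compounds were applied to cells in 96-well plates for 48 hours at 5 doses. GI50: concentration for 50% inhibition of growth.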 Active and inactive are the calls of the source. Cut-off read from the data, not from the text of the source: active = GI50 up to about 1.1 µM and inactive = higher.
Key:
Test in all cases: inhibition of tumour cell growth, NCI panel, 48 h
A549 = system: A549
K562 = system: K562
NCI-H522 = system: NCI-H522
OVCAR-8 = system: OVCAR-8
SK-OV-3 = system: SK-OV-3
HT-29 = system: HT-29
OVCAR-3 = system: OVCAR-3
NCI-H460 = system: NCI-H460
SF-295 = system: SF-295
NCI-H23 = system: NCI-H23
RXF 393 = system: RXF 393
MOLT-4 = system: MOLT-4
OVCAR-4 = system: OVCAR-4
RPMI-8226 = system: RPMI-8226
HOP-92 = system: HOP-92
XF498 = system: XF498
CCRF-CEM = system: CCRF-CEM
EKVX = system: EKVX
KM-20L2 = system: KM-20L2
DMS-273 = system: DMS-273

| Structure (SMILES) | GI50 (A549) | GI50 (K562) | GI50 (NCI-H522) | GI50 (OVCAR-8) | GI50 (SK-OV-3) | GI50 (HT-29) | GI50 (OVCAR-3) | GI50 (NCI-H460) | GI50 (SF-295) | GI50 (NCI-H23) | GI50 (RXF 393) | GI50 (MOLT-4) | GI50 (OVCAR-4) | GI50 (RPMI-8226) | GI50 (HOP-92) | GI50 (XF498) | GI50 (CCRF-CEM) | GI50 (EKVX) | GI50 (KM-20L2) | GI50 (DMS-273) |
| --- | --- | --- | --- | --- | --- | --- | --- | --- | --- | --- | --- | --- | --- | --- | --- | --- | --- | --- | --- | --- |
| CN(Cc1cnc2nc(N)nc(N)c2n1)c1ccc(C(=O)NC(CCC(=O)O)C(=O)O)cc1 (stereo not given) | 0.0384 µM (active) | < 0.01 µM (active) | 0.398 µM (active) | < 0.0448 µM (active) | 1.24 µM (inactive) | < 0.01 µM (active) | 0.111 µM (active) | < 0.01 µM (active) | < 0.0256 µM (active) | 0.0792 µM (active) | > 100 µM (inactive) | 0.0205 µM (active) | > 70.8 µM (inactive) | < 0.0284 µM (active) | 25.4 µM (inactive) | – | – | – | – | – |
| O=S(O)c1cc(Cl)c(O)c(Cl)c1 | – | > 100 µM (inactive) | > 100 µM (inactive) | – | > 100 µM (inactive) | > 100 µM (inactive) | > 100 µM (inactive) | > 100 µM (inactive) | – | > 100 µM (inactive) | > 100 µM (inactive) | > 100 µM (inactive) | > 100 µM (inactive) | – | – | > 100 µM (inactive) | > 100 µM (inactive) | > 100 µM (inactive) | – | – |
| COC(=O)C1=C(C)N2CCCOC2(C)C(C(=O)OC)C1c1cccc(Cl)c1 (stereo not given) | > 100 µM (inactive) | 27.2 µM (inactive) | – | 24.9 µM (inactive) | – | 22.2 µM (inactive) | 22.2 µM (inactive) | 20.5 µM (inactive) | 21.7 µM (inactive) | 31.8 µM (inactive) | 33.1 µM (inactive) | 16.7 µM (inactive) | 56.5 µM (inactive) | 14.3 µM (inactive) | 19.1 µM (inactive) | – | 27.7 µM (inactive) | 14 µM (inactive) | 24.4 µM (inactive) | – |
| CO[C@@]12[C@H](COC(N)=O)C3=C(C(=O)C(C)=C(N)C3=O)N1C[C@@H]1N[C@@H]12 [MITOMYCIN] | – | 2.03 µM (inactive) | 0.667 µM (active) | 1.11 µM (active) | 1.02 µM (active) | 0.759 µM (active) | 3.07 µM (inactive) | – | – | – | 2.01 µM (inactive) | 0.23 µM (active) | 3.56 µM (inactive) | 2.4 µM (inactive) | 3.49 µM (inactive) | – | 0.229 µM (active) | 4.62 µM (inactive) | 1.3 µM (inactive) | 0.104 µM (active) |
| COc1ccc2[nH]cc(/C=C(/C)c3ccncc3)c2c1 | 8.36 µM (inactive) | 2.98 µM (inactive) | 2.63 µM (inactive) | 16 µM (inactive) | 4.41 µM (inactive) | 3.25 µM (inactive) | 5.7 µM (inactive) | 3.57 µM (inactive) | 6.35 µM (inactive) | 2.59 µM (inactive) | – | 3.62 µM (inactive) | 65 µM (inactive) | 5.89 µM (inactive) | 6.47 µM (inactive) | 10.7 µM (inactive) | 3.13 µM (inactive) | 15.6 µM (inactive) | – | 1.57 µM (inactive) |
| Nc1ccc(OCC(O)N2C(=O)c3ccccc3C2=O)cc1 (stereo not given) | > 100 µM (inactive) | > 100 µM (inactive) | > 100 µM (inactive) | > 100 µM (inactive) | > 100 µM (inactive) | > 100 µM (inactive) | > 100 µM (inactive) | > 100 µM (inactive) | > 100 µM (inactive) | – | – | > 100 µM (inactive) | > 100 µM (inactive) | > 100 µM (inactive) | – | – | > 100 µM (inactive) | > 100 µM (inactive) | – | – |
| COC1/C=C\C=C(/C)C(=O)NC2=CC(=O)C=C(C2=O)C(OC)C(C)CC(OC)C(OC)C(C)/C=C(/C)C1OC(N)=O (stereo not given) | 16.7 µM (inactive) | 0.15 µM (active) | 0.231 µM (active) | 1.65 µM (inactive) | 14.6 µM (inactive) | 0.608 µM (active) | 1.49 µM (inactive) | 11.5 µM (inactive) | 20.6 µM (inactive) | 1.7 µM (inactive) | – | 0.214 µM (active) | 8.26 µM (inactive) | 0.807 µM (active) | 2.04 µM (inactive) | 1.87 µM (inactive) | 0.278 µM (active) | 1.97 µM (inactive) | 3.2 µM (inactive) | 12 µM (inactive) |
